The results in this text go back to PubChem BioAssay AID1259407 (Chemical Carcinogenesis Research Information System (CCRIS), 2018).

Each structure is given as a SMILES string. The source made the active and inactive calls. The rule behind the calls is not given here.

The subject of this data set is CCRIS mutagenicity, Ames/micronucleus/aberration tests. Nature of the data set: CCRIS mutagenicity studies.
Where [1] appears, read: Test System: AMES SALMONELLA TYPHIMURIUM, Strain/Indicator: TA98, Metabolic Activation: NONE, Method: STANDARD PLATE.
Where [2] appears, read: Test System: AMES SALMONELLA TYPHIMURIUM, Strain/Indicator: TA100, Metabolic Activation: NONE, Method: STANDARD PLATE.

As for `CCN(CC)c1ccc(C(=C2C=CC(=[N+](CC)CC)C=C2)c2ccccc2)cc1`, the mutagenic call (Test System: AMES SALMONELLA TYPHIMURIUM, Strain/Indicator: TA100, Method: PREINCUBATION) is “active; positive”.

For `Cn1cnc([N+](=O)[O-])c1Sc1ncnc2nc[nH]c12`, the mutagenic call runs as follows: (Test System: AMES SALMONELLA TYPHIMURIUM, Strain/Indicator: TA98, Metabolic Activation: HAMSTER, LIVER, S-9, AROCLOR 1254 (30%), Method: PREINCUBATION) “inactive; negative”; (Test System: AMES SALMONELLA TYPHIMURIUM, Strain/Indicator: TA98, Metabolic Activation: NONE, Method: PREINCUBATION) “inactive; negative”; (Test System: AMES SALMONELLA TYPHIMURIUM, Strain/Indicator: TA98, Metabolic Activation: RAT, LIVER, S-9, AROCLOR 1254 (30%), Method: PREINCUBATION) “inactive; negative”; (Test System: AMES SALMONELLA TYPHIMURIUM, Strain/Indicator: TA100, Metabolic Activation: HAMSTER, LIVER, S-9, AROCLOR 1254 (30%), Method: PREINCUBATION) “active; positive”; (Test System: AMES SALMONELLA TYPHIMURIUM, Strain/Indicator: TA100, Metabolic Activation: NONE, Method: PREINCUBATION) “active; positive”; (Test System: AMES SALMONELLA TYPHIMURIUM, Strain/Indicator: TA100, Metabolic Activation: RAT, LIVER, S-9, AROCLOR 1254 (30%), Method: PREINCUBATION) “active; positive”.

For the compound `ONc1cccc2ccccc12`, the mutagenic call reads like this: under setting [1], “active; positive”; under setting [2], “active; positive”.

`Cc1cc(O)ccc1N`: the mutagenic call was “active; positive. reevaluation of results: equivocal” (Test System: MOUSE LYMPHOMA, Strain/Indicator: L5178Y (TK+/TK-), Metabolic Activation: NONE, Method: SUSPENSION/PLATE) and “inactive; negative. reevaluation of results: inconclusive” (Test System: MOUSE LYMPHOMA, Strain/Indicator: L5178Y (TK+/TK-), Metabolic Activation: RAT, LIVER, S-9, AROCLOR 1254, Method: SUSPENSION/PLATE).

Turning to `CCCS(=O)(=O)n1ncc(Cl)c(Cl)c1=O`, the mutagenic call under setting [1] was “inactive; negative”; the mutagenic call (Test System: AMES SALMONELLA TYPHIMURIUM, Strain/Indicator: TA98, Metabolic Activation: RAT, LIVER, S-9, AROCLOR 1254, Method: STANDARD PLATE) was “inactive; negative”; the mutagenic call under setting [2] was “active; positive”; the mutagenic call (Test System: AMES SALMONELLA TYPHIMURIUM, Strain/Indicator: TA100, Metabolic Activation: RAT, LIVER, S-9, AROCLOR 1254, Method: STANDARD PLATE) is “active; positive”; the mutagenic call (Test System: AMES SALMONELLA TYPHIMURIUM, Strain/Indicator: TA1535, Metabolic Activation: NONE, Method: STANDARD PLATE) is “inactive; negative”; the mutagenic call (Test System: AMES SALMONELLA TYPHIMURIUM, Strain/Indicator: TA1535, Metabolic Activation: RAT, LIVER, S-9, AROCLOR 1254, Method: STANDARD PLATE) was “active; positive”. Also, the mutagenic call is “inactive; negative” (Test System: AMES SALMONELLA TYPHIMURIUM, Strain/Indicator: TA1537, Metabolic Activation: NONE, Method: STANDARD PLATE) and “inactive; negative” (Test System: AMES SALMONELLA TYPHIMURIUM, Strain/Indicator: TA1537, Metabolic Activation: RAT, LIVER, S-9, AROCLOR 1254, Method: STANDARD PLATE).

Take `COC1=CC(=O)c2c(ncc3c2[nH]c2ccccc23)C1=O`: the mutagenic call was “active; positive” (Test System: AMES SALMONELLA TYPHIMURIUM, Strain/Indicator: TA97A, Metabolic Activation: NONE, Method: STANDARD PLATE); “active; positive” (Test System: AMES SALMONELLA TYPHIMURIUM, Strain/Indicator: TA97A, Metabolic Activation: RAT LIVER S-9, AROCLOR 1254, Method: STANDARD PLATE); “active; positive” under setting [1]; “active; positive” (Test System: AMES SALMONELLA TYPHIMURIUM, Strain/Indicator: TA98, Metabolic Activation: RAT LIVER S-9, AROCLOR 1254, Method: STANDARD PLATE); “active; positive” under setting [2]; “active; positive” (Test System: AMES SALMONELLA TYPHIMURIUM, Strain/Indicator: TA100, Metabolic Activation: RAT LIVER S-9, AROCLOR 1254, Method: STANDARD PLATE). The mutagenic call is “active; positive” (Test System: AMES SALMONELLA TYPHIMURIUM, Strain/Indicator: TA102, Metabolic Activation: NONE, Method: STANDARD PLATE) and “active; positive” (Test System: AMES SALMONELLA TYPHIMURIUM, Strain/Indicator: TA102, Metabolic Activation: RAT LIVER S-9, AROCLOR 1254, Method: STANDARD PLATE).

`CN(C)C(=S)S`: the mutagenic call under setting [2] is “active; positive” and the mutagenic call (Test System: AMES SALMONELLA TYPHIMURIUM, Strain/Indicator: TA100, Metabolic Activation: S-9 MIX, Method: STANDARD PLATE) is “inactive; negative”.

As for `O=[N+]([O-])c1cc2[nH]c3cc([N+](=O)[O-])c4ccccc4c3c2c2ccccc12`, the mutagenic call is “active; positive” under setting [1]; “active; positive” (Test System: AMES SALMONELLA TYPHIMURIUM, Strain/Indicator: TA98, Metabolic Activation: RAT, LIVER, S-9, 3-METHYLCHOLANTHRENE, Method: STANDARD PLATE); “active; positive” under setting [2]; “active; positive” (Test System: AMES SALMONELLA TYPHIMURIUM, Strain/Indicator: TA100, Metabolic Activation: RAT, LIVER, S-9, 3-METHYLCHOLANTHRENE, Method: STANDARD PLATE).
